Results from patent US7495024B2, “Phenylalkyl N-hydroxyureas for combating atherosclerotic plaque” (VIA Pharmaceuticals, Inc., priority 2006, dated 2009).

Assays:
[1] = tested on: ApoE-deficient mice; assay: Gross qualitative atherosclerotic lesion analysis of aortas, prevention of plaque formation (Example 1); assay type: in vivo; conditions: 12-week old ApoE-deficient mice, 28 days
Excerpt: In Examples 1 and 2 knockout mice deficient in producing the protein Apolipoprotein E [apoE] were used. ApoE-deficient mice are known to spontaneously develop atherosclerotic plaque at 12-16 weeks, which process is accelerated by feeding the mice a high fat diet. Because the atherosclerotic lesions found in these mice are histologically similar to those found in humans, the ApoE-deficient mice are used as a model for assessing the effects of a drug on atherosclerotic plaque in humans. This example was carried out on ApoE-deficient knockout mice who were before their normal development of atherosclerotic plaque which occurs in about 12 weeks to determine the effect of compound X i.e. the compound: (N-[3-[5-[(4-fluorophenyl)methyl]-2-thienyl]-1-methyl-2-propynyl]-N-hydroxyurea) on the prevention of plaque formation. Four week old female ApoE knockout mice were fed a high fat diet (21% anhydrous milk fat and 0.15% cholesterol) for a period of eight weeks. […] The results which are given in FIG. 1 were analyzed by one-way analysis of variance (ANOVA) and Student's unpaired t-test comparing each treatment arm to the appropriate control arm.

[2] = tested on: patients with carotid stenosis undergoing elective carotid endarterectomy; assay: Randomized, double blind, placebo-controlled study in patients with carotid stenosis undergoing carotid endarterectomy (Example 4); assay type: in vivo, human; conditions: 100 mg daily oral
Experimental: In this randomized, double blind, placebo-controlled study, groups of 40 clinically stable patients between the age of 30 and 80 years with carotid stenosis undergoing elective carotid endarterectomy are treated by orally administering 100 mg of Compound X or placebo. A total of 80 patients are enrolled. Baseline assessments are performed at the start of treatment and these baseline results are compared with repeat assessments during various follow-up periods of treatment. The treatment is conducted for at least twelve weeks at which time these baseline assessments are performed and compared. […]
Plaque samples are obtained from patients following carotid endarterectomy surgery and the samples are analyzed to determine the level of plaque tissue inflammation. […]
The co-primary efficacy variables are: the change from baseline in ex vivo plaque LTB4 synthesis in whole blood and in ex vivo plaque LTB4 concentration after 12 weeks of administration of study medication. […] The significance of the difference between the groups with respect to the ex vivo plaque LTB4 concentrations is assessed by a t-test. […]
The secondary outcome measures of percent macrophage sectional area and number of T lymphocytes in plaque are analyzed using t-tests at the 0.05 alpha level (two sided). […]

## CC(C#Cc1ccc(Cc2ccc(F)cc2)s1)N(O)C(N)=O (stereo not shown) [compound X, N-[3-[5-[(4-fluorophenyl)methyl]-2-thienyl]-1-methyl-2-propynyl]-N-hydroxyurea]
[1]; high fat diet, 1, 10 and 50 mg/kg/day oral once daily, vs vehicle
  extent of plaque in the proximal aorta: reductions in the extent of plaque
[1]; 50 mg/kg/day oral, p<0.03
  reduction of plaque formation in the proximal aorta compared to vehicle: ~40%
[2]; 12 weeks
  number of ischemic lesions after carotid endarterectomy by brain MRI using DWI, vs placebo group: reduction in the number of ischemic lesions
[2]; 12 weeks of dosing
  level of biomarkers and plaque tissue inflammation, percentage of patients vs placebo group: reduction in the level of biomarkers and plaque tissue inflammation
